Experimental data as given in patent US20150105252A1, “SUBSTITUTED PYRAZOLES AS HERBICIDES” (E I DU PONT DE NEMOURS AND COMPANY, priority 2013, published 2015).

Assays:
common ragweed = assay: Test A postemergence; assay type: in vivo, Ambrosia elation
Outline: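 Growth medium: loam soil blended with sand. Preemergence treatment used a directed soil spray right after planting; postemergence treatment targeted seedlings at one to two leaves (2–10 cm height). Response was judged by eye relative to untreated plants about 10 days later on a 0–100 control scale.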

Surinam grass = assay: Test E preemergence; assay type: in vivo, Brachiaria decumbens; settings: 21 days, scale 0 to 100
From the text: (§1) Seeds of plant species selected from bermudagrass (Cynodon dactylon), Surinam grass (Brachiaria decumbens), crabgrass, large (large crabgrass, Digitaria sanguinalis), crabgrass, naked (naked crabgrass, Digitaria nuda), foxtail, green (green foxtail, Setaria viridis), johnsongrass (Sorghum halepense), kochia (Kochia scoparia), morningglory (pitted morningglory, Ipomoea lacunosa), nutsedge, purple (purple nutsedge, Cyperus rotundus), ragweed (common ragweed, Ambrosia elation), mustard, black (black mustard, Brassica nigra), guineagrass (Panicum maximum), dallisgrass (Paspalum dilatatum), barnyardgrass (Echinochloa crus-galli), sandbur (southern sandbur, Cenchrus echinatus), sowthistle (common sowthistle, Sonchus oleraceous), ryegrass, Italian (Italian ryegrass, Lolium multiflorum), signalgrass (broadleaf signalgrass, Brachiaria platyphylla), dayflower, VA (Virginia (VA) dayflower, Commelina virginica), bluegrass (annual bluegrass, Poa annua), quackgrass (Elytrigia repens), mallow (common mallow, Malva sylvestris), buckwheat, wild (wild buckwheat, Polygonum convolvulus), leafy spurge (Euphorbia esula), common chickweed (Stellaria media), wild poinsettia (Euphorbia heterophylla), pigweed, palmer (palmer pigweed, Amaranthus palmeri), and pigweed (redroot pigweed, Amaranthus retroflexus) were planted into a blend of loam soil and sand and treated preemergence with test chemicals formulated in a non-phytotoxic solvent mixture which included a surfactant.
(§2) Treated plants and controls were maintained in a greenhouse for 21 days, after which time all species were compared to controls and visually evaluated. Plant response ratings, summarized in Table E, are based on a scale of 0 to 100 where 0 is no effect and 100 is complete control. A dash (-) response means no test result.

southern sandbur = assay: Test F postemergence; assay type: in vivo, Cenchrus echinatus; settings: scale 0 to 100
From the text: (§3) Seeds of plant species selected from corn (Zea mays), soybean (Glycine max), velvetleaf (Abutilon theophrasti), lambsquarters (Chenopodium album), wild poinsettia (Euphorbia heterophylla), pigweed, palmer (palmer pigweed, Amaranthus palmeri), common waterhemp (Amaranthus rudis), surinam grass (Brachiaria decumbens), large crabgrass (Digitaria sanguinalis), crabgrass, Brazil (Brazilian crabgrass, Digitaria horizontalis), fall panicum (Panicum dichotomiflorum), giant foxtail (Setaria faberii), green foxtail (Setaria viridis), goosegrass (Eleusine indica), johnsongrass (Sorghum halepense), common ragweed (Ambrosia elation), barnyardgrass (Echinochloa crus-galli), southern sandbur (Cenchrus echinatus), arrowleaf sida (Sida rhombifolia), Italian ryegrass (Lolium multiflorum), dayflower, VA (Virginia (VA) dayflower, Commelina virginica), field bindweed (Convolvulus arvensis), cocklebur (common cocklebur, Xanthium strumarium), morningglory (Ipomoea coccinea), nightshade (eastern black nightshade, Solanum ptycanthum), kochia (Kochia scoparia), yellow nutsedge (Cyperus esculentus), and hairy beggarticks (Bidens pilosa), were planted into a silt loam soil and treated preemergence with test chemicals formulated in a non-phytotoxic solvent mixture which included a surfactant.
(§4) At the same time, plants from these crop and weed species and also horseweed (Canada horseweed, Conyza canadensis), smartweed (ladysthumb smartweed, Polygonum persicaria), waterhemp_RES1, (ALS & Triazine resistant common waterhemp, Amaranthus rudis), and waterhemp_RES2, (ALS & HPPD resistant common waterhemp, Amaranthus rudis) were treated with postemergence applications of test chemicals formulated in the same manner. Plants ranged in height from 2 to 18 cm for postemergence treatments (1- to 4-leaf stage). Treated plants and controls were maintained in a greenhouse for 14 to 21 days, after which time all species were compared to controls and visually evaluated. Plant response ratings, summarized in Table F, are based on a scale of 0 to 100 where 0 is no effect and 100 is complete control. A dash (-) response means no test result.

quackgrass = assay: Test E preemergence; assay type: in vivo, Elytrigia repens; settings: 21 days, scale 0 to 100
From the text: as §1, §2

wild poinsettia = assay: Test E preemergence; assay type: in vivo, Euphorbia heterophylla; settings: 21 days, scale 0 to 100
From the text: as §1, §2

crabgrass, Brazil = assay: Test F postemergence; assay type: in vivo, Digitaria horizontalis; settings: scale 0 to 100
Outline: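 Greenhouse study; evaluation window 14–21 days post-treatment. Seedlings sprayed postemergence measured 2–18 cm, while preemergence treatments went on silt loam soil. Non-phytotoxic solvent mixture with surfactant served as vehicle; response assessed by eye, 0–100 scale.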

pigweed = assay: Test E preemergence; assay type: in vivo, Amaranthus retroflexus; settings: 21 days, scale 0 to 100
From the text: as §1, §2

fall panicum = assay: Test F postemergence; assay type: in vivo, Panicum dichotomiflorum; settings: scale 0 to 100
From the text: as §3, §4

mustard, black = assay: Test E preemergence; assay type: in vivo, Brassica nigra; settings: 21 days, scale 0 to 100
From the text: as §1, §2

[1] = Postemergence, 500 g ai/ha, 0 to 100 scale (0 no effect, 100 complete control)
[2] = postemergence, 125 g ai/ha, about 10 days, visual rating on 0 to 100 scale (0 no effect, 100 complete control)

With CCOc1cc(C(=O)NC2CC2)nn1Cc1ccnc(OC(F)F)c1 [Compound 133] the “Common Ragweed plant response rating” value (common ragweed; [1]) was 100 and the “Common Ragweed plant response rating” value (common ragweed; [2]) was 60.
In the case of CCOc1cc(C(=O)NCC(F)(F)F)nn1Cc1ccnc(C(F)(F)F)c1 [Compound 104], the “Plant response rating, Surinam Grass” value (Surinam grass; 16 g ai/ha) is reported as 50, the “Plant response rating, Surinam Grass” value (Surinam grass; 31 g ai/ha) is reported as 75 and the “Plant response rating, Surinam Grass” value (Surinam grass; 62 g ai/ha) is reported as 95. The “Plant response rating, Surinam Grass” value (Surinam grass; 125 g ai/ha) was 100, the “Plant response rating, Surinam Grass” value (Surinam grass; 250 g ai/ha) was 100 and the “Plant response rating, Southern Sandbur” value (southern sandbur; Postemergence, 31 g ai/ha) was 10. For the same molecule, the “Plant response rating, Southern Sandbur” value (southern sandbur; Postemergence, 125 g ai/ha) was 45, the “Plant response rating, Southern Sandbur” value (southern sandbur; Postemergence, 250 g ai/ha) was 90 and the “Plant response rating, Southern Sandbur” value (southern sandbur; postemergence, 62 g ai/ha) was 30. For the same molecule, the “Plant response rating, Southern Sandbur” value (southern sandbur; postemergence, 500 g ai/ha) was 90, the “Plant response rating, Quackgrass” value (quackgrass; 16 g ai/ha) was 75 and the “Plant response rating, Quackgrass” value (quackgrass; 31 g ai/ha) was 95. For the same molecule, the “Plant response rating, Quackgrass” value (quackgrass; 62 g ai/ha) was 95, the “Plant response rating, Quackgrass” value (quackgrass; 125 g ai/ha) was 98 and the “Plant response rating, Quackgrass” value (quackgrass; 250 g ai/ha) was 100. The “Plant response rating, Wild Poinsettia” value (wild poinsettia; 16 g ai/ha) was 95, the “Plant response rating, Wild Poinsettia” value (wild poinsettia; 31 g ai/ha) was 100 and the “Plant response rating, Wild Poinsettia” value (wild poinsettia; 62 g ai/ha) was 100. The “Plant response rating, Wild Poinsettia” value (wild poinsettia; 125 g ai/ha) was 100, the “Plant response rating, Wild Poinsettia” value (wild poinsettia; 250 g ai/ha) was 100 and the “Plant response rating, Crabgrass, Brazil” value (crabgrass, Brazil; Postemergence, 31 g ai/ha) was 40. The “Plant response rating, Crabgrass, Brazil” value (crabgrass, Brazil; Postemergence, 125 g ai/ha) was 60, the “Plant response rating, Crabgrass, Brazil” value (crabgrass, Brazil; Postemergence, 250 g ai/ha) was 90 and the “Plant response rating, Crabgrass, Brazil” value (crabgrass, Brazil; postemergence, 62 g ai/ha) was 50. The “Plant response rating, Crabgrass, Brazil” value (crabgrass, Brazil; postemergence, 500 g ai/ha) was 95, the “Plant response rating, Pigweed” value (pigweed; 16 g ai/ha) was 100 and the “Plant response rating, Pigweed” value (pigweed; 31 g ai/ha) was 100. For the same molecule, the “Plant response rating, Pigweed” value (pigweed; 62 g ai/ha) was 100, the “Plant response rating, Pigweed” value (pigweed; 125 g ai/ha) was 100 and the “Plant response rating, Pigweed” value (pigweed; 250 g ai/ha) was 100. For the same molecule, the “Plant response rating, Fall Panicum” value (fall panicum; Postemergence, 31 g ai/ha) was 10, the “Plant response rating, Fall Panicum” value (fall panicum; Postemergence, 125 g ai/ha) was 50 and the “Plant response rating, Fall Panicum” value (fall panicum; Postemergence, 250 g ai/ha) was 80. The “Plant response rating, Fall Panicum” value (fall panicum; postemergence, 62 g ai/ha) was 40, the “Plant response rating, Fall Panicum” value (fall panicum; postemergence, 500 g ai/ha) was 90 and the “Plant response rating, Mustard, Black” value (mustard, black; 16 g ai/ha) was 100. The “Plant response rating, Mustard, Black” value (mustard, black; 31 g ai/ha) was 100, the “Plant response rating, Mustard, Black” value (mustard, black; 62 g ai/ha) was 100 and the “Plant response rating, Mustard, Black” value (mustard, black; 125 g ai/ha) was 100. For the same molecule, the “Plant response rating, Mustard, Black” value (mustard, black; 250 g ai/ha) was 100.
For CCONC(=O)c1cc(CC)n(Cc2cc(C(F)(F)F)no2)n1 [Compound 125], the “Common Ragweed plant response rating” value (common ragweed; [1]) was 60 and the “Common Ragweed plant response rating” value (common ragweed; [2]) was 20.
With CCc1cc(C(=O)NCC(F)(F)F)nn1Cc1cc(OC(F)F)nn1C [Compound 206] the “Common Ragweed plant response rating” value (common ragweed; [1]) was 30 and the “Common Ragweed plant response rating” value (common ragweed; [2]) was 0.
